Test [1] concerns immature rats (4-week old male Wistar rats). Nature of the test: Evaluation of blood calcium concentration-decreasing activity in immature rats. Format: in vivo. To be noted: Rattus norvegicus; 6 hours after oral administration of 10 mg/kg, fasted 4-week old male Wistar rats, vs normal control group; read-out: serum calcium concentration-decreasing rate. As to the method: The blood calcium concentration in a living body is strictly controlled and constantly maintained by intestinal absorption and urinary excretion and release (bone resorption) and adhesion (bone formation) in bone tissues. […] The bone resorption-suppressing activity of compounds according to the present invention was evaluated by observing decreases in blood calcium concentration in immature rats administered with the compounds as an index of the activity.
The test was conducted using 4-week old male Wistar rats fasted for 12 to 24 hours. Each compound to be tested was suspended in 0.5% methyl cellulose (MC). The suspension was orally administered to the rats at a dose of 5 mL/kg. Rats of a normal control group were similarly administered with 0.5% MC alone. Then, blood was drawn from rat jugular vein under ether anesthesia 6 hours after the administration of each test compound or 0.5% MC. The blood was immediately centrifuged (10000 rpm/revolutions per minute, 5 minutes) at room temperature to separate serum. The calcium concentration of each serum was measured by an autoanalyzer (JEOL, JCA-BM2250). Five rats were used for each test group.
The evaluation was conducted by a comparative test with the normal control group based on the serum calcium concentration-decreasing rate (%) calculated according to the following equation: Serum calcium concentration-decreasing rate(%)=(([serum calcium concentration in normal control group]−[serum calcium concentration in test compound administration group]/[serum calcium concentration in normal control group])×100.

In test [2] the test system is adjuvant arthritis model rats (8-week old female Lewis rats). Kind of test: Bone density decrease-suppressing activity in adjuvant arthritis model rats. To be noted: dose 3 mg/kg, oral once a day for 7 days from day 14 after adjuvant injection; femur bone density on the 21st day. The format is in vivo, rat. As to the method: In rheumatoid arthritis, not only swelling and pain caused by arthritis but also systemic bone mass decrease and articular destruction caused by a significant increase in bone resorption are observed.
The test was conducted using 8-week old female Lewis rats. Mycobacterium butyricum cells killed by heat were ground in an agate mortar, suspended in liquid paraffin sterilized by dry heat to a concentration of 2 mg/mL, and treated with ultrasonic to prepare an adjuvant. Under ether anesthesia, rats in a control group other than a normal control group and rats in test compound administration group were intradermally injected with 0.05 mL of the adjuvant each time (0.1 mL/rat in total) at two portions of the base of the tail. Starting from 14 days after the injection of the adjuvant, each rat was orally administered with 5 mL/kg of a test compound suspended in 0.5% MC once a day for 7 days. The rats of the control group were similarly administered with 0.5% MC alone. On the 21st day after the adjuvant injection, the femur was biopsied. The femur, after removing soft tissues, was sufficiently fixed, dehydrated, and dried with ethanol. The bone density of the femur was measured with a bone density analyzer (Aloka, DOS-600 EX-IIIR). Five rats were used for each group.
The evaluation was conducted by comparative tests with the normal control group and the control group based on the bone density decrease-suppressing rate (%) calculated according to the following equation: Bone density decrease-suppressing rate(%)=((1−([femur bone density in normal control group]−[femur bone density in test compound administration group]))/([femur bone density in normal control group]−[femur bone density in control group]))×100

Structures are written as SMILES.

Turning to `O=C(NC(Cc1ccc(OC2CC2)cc1)C(=O)NCCO)c1ccc(OCC2CC2)cc1` (stereo not drawn) [Example 20, 4-(Cyclopropylmethoxy)-N-{1-[4-(cyclopropyloxy)benzyl]-2-[(2-hydroxyethyl)amino]-2-oxoethyl}benzamide], the inhibition in vivo at 10 mg/kg in test [1] was at least 10%.
In the case of `O=C(N[C@@H](Cc1ccc(OC(F)(F)F)cc1)C(=O)NCCO)c1ccc(Oc2ccc(C(F)(F)F)cc2)cc1` [Example 64, N-{(1S)-2-[(2-Hydroxyethyl)amino]-2-oxo-1-[4-(trifluoromethoxy)benzyl]ethyl}-4-[4-(trifluoromethyl)phenoxy]benzamide], the “Bone density decrease-suppressing rate (%)” value in test [2] was determined as 77%.
As for `O=C(NC(Cc1ccc(C(F)(F)F)cc1)C(=O)NCCO)c1ccc(OCCC2CC2)cc1` (stereo not drawn) [Example 7, 4-(2-Cyclopropylethoxy)-N-{2-[(2-hydroxyethyl)amino]-2-oxo-1-[4-(trifluoromethyl)benzyl]ethyl}benzamide], in test [1], the inhibition in vivo at 10 mg/kg was at least 10%.
In the case of `O=C(NC(Cc1ccc(OC(F)(F)F)cc1)C(=O)NCCO)c1ccc(OCCC2CC2)cc1` (stereo not drawn) [Example 4, 4-(2-Cyclopropylethoxy)-N-{2-[(2-hydroxyethyl)amino]-2-oxo-1-[4-(trifluoromethoxy)benzyl]ethyl}benzamide], the inhibition in vivo at 10 mg/kg in test [1] was at least 10%.
On to `O=C(NC(Cc1ccc(OC(F)(F)F)cc1)C(=O)NCCO)c1ccc(Oc2ccc(C(F)(F)F)cc2)cc1` (stereo not drawn) [Example 42, N-{2-[(2-Hydroxyethyl)amino]-2-oxo-1-[4-(trifluoromethoxy)benzyl]ethyl}-4-[4-(trifluoromethyl)phenoxy]benzamide], for which the inhibition in vivo at 10 mg/kg in test [1] is at least 10%.
On the same count and under the same terms, in the case of `O=C(NC(Cc1ccc(C(F)(F)F)cc1)C(=O)NCCO)c1ccc(OCC2CC2)cc1` (stereo not drawn) [Example 22, 4-(Cyclopropylmethoxy)-N-{2-[(2-hydroxyethyl)amino]-2-oxo-1-[4-(trifluoromethyl)benzyl]ethyl}benzamide] it was at least 10%; in that of `O=C(NC(Cc1ccc(OC(F)(F)F)cc1)C(=O)NCCO)c1ccc(OCC2CC2)cc1` (stereo not drawn) [Example 19, 4-(Cyclopropylmethoxy)-N-{2-[(2-hydroxyethyl)amino]-2-oxo-1-[4-(trifluoromethoxy)benzyl]ethyl}benzamide], at least 10%.
Same read-out and setting: the result for `O=C(NC(Cc1ccc(OC(F)F)cc1)C(=O)NCCO)c1ccc(OCCC2CC2)cc1` (stereo not drawn) [Example 3, 4-(2-Cyclopropylethoxy)-N-{1-[4-(difluoromethoxy)benzyl]-2-[(2-hydroxyethyl)amino]-2-oxoethyl}benzamide] reads at least 10%; that for `O=C(NC(Cc1ccc(OC(F)F)cc1)C(=O)NCCO)c1ccc(OCC2CC2)cc1` (stereo not drawn) [Example 18, 4-(Cyclopropylmethoxy)-N-{1-[4-(difluoromethoxy)benzyl]-2-[(2-hydroxyethyl)amino]-2-oxoethyl}benzamide], at least 10%.
For the compound `O=C(NC(Cc1ccc(C2CC2)cc1)C(=O)NCCO)c1ccc(OCC2CC2)cc1` (stereo not drawn) [Example 23, N-{1-(4-Cyclopropylbenzyl)-2-[(2-hydroxyethyl)amino]-2-oxoethyl}-4-(cyclopropylmethoxy)benzamide], the inhibition in vivo at 10 mg/kg in test [1] was at least 10%.
`O=C(N[C@@H](Cc1ccc(C(F)(F)F)cc1)C(=O)NCCO)c1ccc(OCCC(F)(F)F)cc1` [Example 61, N-{(1S)-2-[(2-Hydroxyethyl)amino]-2-oxo-1-[4-(trifluoromethyl)benzyl]ethyl}-4-(3,3,3-trifluoropropoxy)benzamide]: the “Bone density decrease-suppressing rate (%)” value in test [2] is listed as 75%.
The same measure, in the same setting: the result for `O=C(N[C@@H](Cc1ccc(OC(F)(F)F)cc1)C(=O)NCCO)c1ccc(OCC2CC2)cc1` [Example 51, 4-(Cyclopropylmethoxy)-N-{(1S)-2-[(2-hydroxyethyl)amino]-2-oxo-1-[4-(trifluoromethoxy)benzyl]ethyl}benzamide] reads 85%.
Turning to `O=C(NC(Cc1ccc(OC(F)(F)F)cc1)C(=O)NCCO)c1ccc(OCCCC2CC2)cc1` (stereo not drawn) [Example 25, 4-(3-Cyclopropylpropoxy)-N-{2-[(2-hydroxyethyl)amino]-2-oxo-1-[4-(trifluoromethoxy)benzyl]ethyl}benzamide], the inhibition in vivo at 10 mg/kg in test [1] was at least 10%.
`O=C(N[C@@H](Cc1ccc(OC(F)(F)F)cc1)C(=O)NCCO)c1ccc(OCCC(F)(F)F)cc1` [Example 57, N-{(1S)-2-[(2-Hydroxyethyl)amino]-2-oxo-1-[4-(trifluoromethoxy)benzyl]ethyl}-4-(3,3,3-trifluoropropoxy)benzamide]: the “Bone density decrease-suppressing rate (%)” value in test [2] is listed as 86%.
With `O=C(NC(Cc1ccc(OC(F)(F)F)cc1)C(=O)NCCO)c1ccc(OCC2CC2(F)F)cc1` (stereo not drawn) [Example 40, 4-[(2,2-Difluorocyclopropyl)methoxy]-N-{2-[(2-hydroxyethyl)amino]-2-oxo-1-[4-(trifluoromethoxy)benzyl]ethyl}benzamide], the inhibition in vivo at 10 mg/kg in test [1] was at least 10%.
As to `O=C(N[C@@H](Cc1ccc(OC(F)F)cc1)C(=O)NCCO)c1ccc(OCCC(F)(F)F)cc1` [Example 59, N-{(1S)-1-[4-(Difluoromethoxy)benzyl]-2-[(2-hydroxyethyl)amino]-2-oxoethyl}-4-(3,3,3-trifluoropropoxy)benzamide], the “Bone density decrease-suppressing rate (%)” value in test [2] is recorded as 92%.
`O=C(NC(Cc1ccc(OC(F)(F)F)cc1)C(=O)NCCO)c1ccc(OCCC(F)(F)F)cc1` (stereo not drawn) [Example 34, N-{2-[(2-Hydroxyethyl)amino]-2-oxo-1-[4-(trifluoromethoxy)benzyl]ethyl}-4-(3,3,3-trifluoropropoxy)benzamide]: the inhibition in vivo at 10 mg/kg in test [1] was at least 10%.
On the same count and under the same terms, the result for `O=C(NC(Cc1ccc(OC(F)(F)F)cc1)C(=O)NCCO)c1ccc(OCC(F)F)cc1` (stereo not drawn) [Example 31, 4-(2,2-Difluoroethoxy)-N-{2-[(2-hydroxyethyl)amino]-2-oxo-1-[4-(trifluoromethoxy)benzyl]ethyl}benzamide] reads at least 10%.

For the origin of these results see patent US8344029B2, “Substituted propanamide derivative and pharmaceutical composition containing the same” (Daiichi Sankyo Company, Limited, priority 2005, dated 2013).
